Data as given in patent publication US20240132511A1, “TREATMENTS OF PRADER-WILLI SYNDROME” (Neuren Pharmaceuticals Limited, priority 2021, published 2024).

Tests used:
[1] = Delivery of cG-2-AllylP into CSF, blood and brain after single oral gavage dose; type: in vivo, male Sprague Dawley rats; settings: for Mean Test Article Exposure, Blood / Mean Test Article Exposure, CSF / Mean Test Article Exposure, Brain: rat
Experimental: In an in vivo study, male Sprague Dawley rats (aged 14 weeks) received a single dose of cG-2-AllylP, either 100 mg/kg or 200 mg/kg by oral gavage. Cerebrospinal fluid (CSF) and whole blood were collected at 1.5 and 4 hours post-dose, and brain tissue was collected at 4 hours post-dose to evaluate cG-2-AllylP exposure.

[2] = tested on: Magel2-null mice; test: Novel Object Recognition (NOR); type: in vivo, mouse; set-up: key: **** = p < 0.0001; ns = not significant
Description: The mouse locus 7qB4/B5 (syntenic with the Prader-Willi region at chromosome position 15q11-q13 in humans) encompasses the cluster of paternally-expressed imprinted genes Magel2, Ndn, Mkrn3, and Peg12. As maternal imprinting silences the Magel2 allele, only the paternally inherited Magel2 allele is expressed. Heterozygous females were bred with wild-type males (or C57BL/6J inbred males) to maintain the line; as the resulting offspring will have no abnormal phenotype. To obtain “Magel2-null” offspring (both maternal and paternal Magel2 alleles are non-functional), wild-type females are bred with heterozygous males; allowing maternal transmission of the imprinted/silenced wild-type allele and paternal transmission of the Magel2-lacZ (null) allele. Magel2-null mice have disrupted circadian rhythm and metabolism, total activity, food consumption, weight before weaning, and fertility in both sexes, as well as increased adiposity after weaning and altered behavior. Magel2-null mice on this C57BL/6J genetic background recapitulate Prader-Willi syndrome. Because the genetic mutation in the Magel2-null animals is the same as the mutation in human beings, studies in Magel2-null mice are reasonably predictive of effects of compounds in human beings.
(§1) In vivo experiments were conducted in C57BL/6-Magel2tm1Stw/J (Magel2-null) mice at age P60 and their wild-type littermates during the light phase (littermates that were wild-type for Magel2 were used as controls). Ten mice per treatment group were used for studies 1 and 2, and six mice per group for study 3. In study 1: C57BL/6-Magel2tm1Stw/J (Magel2-null) mice were assessed on behavioral assays. Study 2 tested the efficacy of cG-2-AllylP in treating obesity and insulin levels in Magel2-null mice. Study 3 tested the IGF-1 level in Magel2-null mice. Because human beings have the same genetic abnormality, studies of Magel2-null mice are reasonably predictive of effects of compounds of Formulas I, II, III and IV in human beings with Prader-Willi Syndrome.
(§2) Testing was performed during the light phase of the circadian cycle, with the order of testing being determined by the principle of conducting the most stressful tests last. Assays were designed to reproduce and expand on the original behavioral characterization of Magel2-null mice. Magel2-null and wild-type control mice were dosed once daily for 6 weeks prior to testing and tested 30 minutes following a dose of cG-2-AllylP (NNZ2591). Study groups and the treatment matrix are described in Table 2 below.
The NOR test is used to evaluate cognition, based on the tendency for mice to spend more time exploring a novel object that a familiar object. Magel2-null mice display a lack of discrimination between known and novel objects.

[3] = tested on: Magel2-null mice; test: Insulin levels in female Magel2-null mice; type: in vivo, mouse; set-up: key to Insulin, significance: **** = p < 0.0001; ns = not significant
Experimental: as §1, §2
(§3) Prader-Willi Syndrome is associated with metabolic and hormonal abnormalities in humans. Magel2-null mice recapitulate some of the metabolic and hormonal aspects of humans with Prader-Willi Syndrome. Experiments were conducted to determine if cG-2-AllylP could have a normalizing effect in metabolic and hormonal aspects.
(§4) Because female Magel2-null mice present a significant increase in body weight compared with their littermate wild-type controls, female Magel2-null mice were used for this study.
Insulin was measured for each group.

[4] = tested on: subjects with Prader-Willi syndrome; test: Proposed randomized, double-blind placebo controlled study in subjects with Prader-Willi syndrome; type: in vivo, human
Description: For the proposed study thirty subjects with Prader-Willi syndrome are recruited. Subjects are females and males aged between 4 and 20 years (Mean=12.1 SD=4.4). All subjects have confirmed loss of function in the 15q11-q13 region on the paternal copy of chromosome 15 and also meet diagnostic criteria for Prader-Willi syndrome based on assessment of behavioral and somatic symptoms. The majority of subjects (72%) are being treated with rhGH at screening. Subjects are instructed that concomitant medications are to be stable for at least six weeks prior to study.
The study is a randomized, double-blind placebo controlled parallel study with subjects randomized 1:1:1 to placebo, 6 mg/kg or 12 mg/kg of Cyclo-L-Glycyl-L-2-Allylproline is to be administered as an oral liquid twice daily for eighty-four days.
Subjects are tested at baseline using the following instruments: the Hyperphagia Questionnaire for Clinical Trials (HQ-CT), the Clinical Global Impression of Severity (CGI-S), the Caregiver Global Impression of Change (CaGI-I), the Aberrant Behavior Checklist (ABC) and ABC Subscales, the Social Responsiveness Scale, the Repetitive Behavior Scale-Revised (RBS-R), the PWS Anxiety and Distress Questionnaire (PADQ) and the Children's Yale-Brown Obsessive-Compulsive Scale (CY-BOCS). In addition, the following measurements are made at baseline: Body Fat Assessment (BFA), fasting blood glucose, blood lipids (HDL, LDL, VLDL, triglycerides), serum IGF-1 (total, bound to IGF-1 Binding Protein-3 [IGFBP-3]), fasting insulin and the Homeostatic Model Assessment for Insulin Resistance (HOMA-IR).
The effect of treatment with Cyclo-L-Glycyl-L-2-Allylproline is analyzed by conducting a repeated analysis of covariance (ANCOVA) on change from baseline scores for each of the measures plus the Clinical Global Impression of Change (CGI-I). Safety is assessed using caregiver reports of adverse events, a panel of standard laboratory tests and electrocardiograms (ECG).

[5] = tested on: Magel2-null mice; test: Fat mass in female Magel2-null mice; type: in vivo, mouse; set-up: key: **** = p < 0.0001; ns = not significant
Experimental: as §1, §2, §3, §4

[6] = single oral dose 100 mg/kg, 1.5 h post-dose
[7] = single oral dose 100 mg/kg, 4 h post-dose
[8] = single oral dose 200 mg/kg, 1.5 h post-dose
[9] = single oral dose 200 mg/kg, 4 h post-dose
[10] = Magel2-null + Vehicle vs. Magel2-null + NNZ2591 (200 mg/kg)
[11] = WT + NNZ2591 (200 mg/kg) vs. Magel2-null + NNZ2591 (200 mg/kg)
[12] = WT + Vehicle vs. WT + NNZ2591 (100 mg/kg)
[13] = WT + Vehicle vs. WT + NNZ2591 (200 mg/kg)
[14] = Magel2-null + NNZ2591 200 mg/kg
[15] = 6 mg/kg or 12 mg/kg oral liquid twice daily for eighty-four days
[16] = 6 mg/kg or 12 mg/kg oral liquid twice daily for eighty-four days vs placebo

C=CCC12CCCN1C(=O)CNC2=O [cG-2-AllylP, (8aS)-Allyl-hexahydropyrrolo[1,2-a]pyrazine-1,4-dione]
Concentration in blood versus brain tissue ([1]; 4 hours post-dose): approximately equivalent
Dose dependence of concentration ([1]; blood and CSF at 1.5 hours, blood, CSF and brain at 4 hours, single oral dose 100 vs 200 mg/kg): approximately proportional increase
Mean Test Article Exposure, Blood [1, 6]: 58.5 µg/mL
Mean Test Article Exposure, CSF [1, 6]: 40.4 µg/mL
Mean Test Article Exposure, Blood [1, 7]: 15.6 µg/mL
Mean Test Article Exposure, Brain [1, 7]: 22.6 µg/mL
Mean Test Article Exposure, CSF [1, 7]: 11.0 µg/mL
Mean Test Article Exposure, Blood [1, 8]: 116.0 µg/mL
Mean Test Article Exposure, CSF [1, 8]: 82.2 µg/mL
Mean Test Article Exposure, Blood [1, 9]: 34.2 µg/mL
Mean Test Article Exposure, Brain [1, 9]: 37.0 µg/mL
Mean Test Article Exposure, CSF [1, 9]: 24.7 µg/mL
Novel object recognition, Sidak's multiple comparisons test, Summary ([2]; Magel2-null + NNZ2591 (100 mg/kg) vs. Magel2-null + NNZ2591 (200 mg/kg)): ns
Novel object recognition, Sidak's multiple comparisons test, Summary [2, 10]: **** (**** = p < 0.0001)
Novel object recognition, Sidak's multiple comparisons test, Summary ([2]; WT + NNZ2591 (100 mg/kg) vs. Magel2-null + NNZ2591 (100 mg/kg)): ns
Novel object recognition, Sidak's multiple comparisons test, Summary [2, 11]: ns
Novel object recognition, Sidak's multiple comparisons test, Summary [2, 12]: ns
Novel object recognition, Sidak's multiple comparisons test, Summary [2, 13]: ns
Insulin (mean ± SEM) ([3]; Magel2-null + NNZ2591 100 mg/kg): 143 pM
Insulin (mean ± SEM) [3, 14]: 119 pM
Insulin, significance [3, 14]: (ns)
Insulin (mean ± SEM) ([3]; WT + NNZ2591 100 mg/kg): 112 pM
Insulin (mean ± SEM) ([3]; WT + NNZ2591 200 mg/kg): 115 pM
Duration and severity of adverse events [4, 15]: short duration and mild severity
Serious Adverse Events [4, 15]: No Serious Adverse Events are reported
Incidence of treatment-emergent adverse events [4, 16]: no difference in the incidence of treatment-emergent adverse events between placebo and either dose
Laboratory tests and ECG measures [4, 16]: no treatment-related pattern of abnormalities on laboratory tests or ECG measures
Effect on fat mass, Sidak's multiple comparisons test, Summary ([5]; Magel2-null + Vehicle vs. Magel2-null + NNZ2591 (100 mg/kg)): ns
Effect on fat mass, Sidak's multiple comparisons test, Summary [5, 10]: **** (**** = p < 0.0001)
Effect on fat mass, Sidak's multiple comparisons test, Summary [5, 11]: ns
Effect on fat mass, Sidak's multiple comparisons test, Summary [5, 12]: ns
Effect on fat mass, Sidak's multiple comparisons test, Summary [5, 13]: ns
